In patent publication US11872260B2, “Mint essential oils inhibit HRASQ61L mutant keratinocyte activity and prevent skin carcinogenesis” (ACADEMIA SINICA, priority 2018, dated 2024):

How the values were obtained:
cdc2 in PDV cells = experiment: Western blot p-cdc2/cdc2; format: cell-based, mouse; settings: 24 h; KWM-EO 75 μg/mL, LM-EO 75 μg/mL, L+C 60 μg/mL, PLX4032 0.5 μM, each alone
Experimental: (§1) Cells were treated with EOs or compounds at the indicated concentrations and lysed in RIPA lysis buffer. Protein concentrations were measured by DC protein assay (Bio-Rad, United States). Western blotting was performed as described by Shyur et al. Protein samples were separated by 10 or 12% SDS-PAGE, and electro-transferred onto PVDF membranes (Merck Millipore, United States). The membranes were blocked with 5% skimmed milk in TBST for 1 h at room temperature. After washing the membranes three times with TBST, membranes were incubated with appropriate primary antibodies overnight (12-16 h) at 4° C. The membranes were washed with TBST three times, followed by incubation with horseradish peroxidase (HRP)-conjugated anti-mouse IgG or anti-rabbit IgG secondary antibodies for 2 h at room temperature. Reactive protein bands were visualized using enhanced chemiluminescent detection reagents (GE Healthcare, United States) and exposed to chemiluminescence light film (GE Healthcare, United States). The expression levels of targeted proteins were quantified by ImageJ software (National Institutes of Health, United States).

[1] = test system: DMBA/TPA/PLX4032-induced skin papilloma; experiment: Two-stage skin carcinogenesis, DMBA/TPA accelerated by PLX4032; format: in vivo, FVB/NJNarl mice
Experimental: Female FVB/NJNarl mice (5-6 weeks old) were randomized into 9 groups, each group contained 8 mice. Mice had their back hair shaved three days before topical application of 25 μg 7,12-dimethylbenz[a]anthracene (DMBA) in 200 μL acetone. The first week after tumor initiation, 4 μg of 12-O-tetradecanoylphorbol-13-acatate (TPA) in 200 μL acetone was topically applied twice a week to the shaved back skin for 12 weeks. Mice were treated with the indicated concentrations of mint EOs or compounds (in 200 μL acetone) twice a week by topical application the day after TPA treatment for 12 weeks. Tumor size of more than 1 mm diameter was counted every week. After mice were sacrificed, internal organs (heart, liver, spleen, lung, and kidneys), serum, skin and papillomas were collected and fixed with 10% formalin or stored at −80° C.

[2] = test system: epidermis of mouse dorsal skin; experiment: Histopathology (H&E) of mouse skin from two-stage skin carcinogenesis; format: in vivo, FVB mice; settings: intraperitoneal PLX4032 in DMBA/TPA skin
patients = patients treated with PLX4032; cited from earlier work
B16 melanoma cells = experiment: Depigmentation assay (melanin absorbance 405 nm); format: cell-based, Murine; settings: 24 h; 15 and 25 μg/mL LM-EO, 100 μg/mL KA
Experimental: B16 cells (1×10^6 cells/15-cm dish) were treated with vehicle (0.5% DMSO), 15 and 25 μg/mL LM-EO (LM15 and LM25), or 100 μg/mL kojic acid (KA100) for 6, 12, 24 h. After washing with PBS for two times, the cells were harvested by cell scrapper and centrifugation. The cell pellets were then taken a photo before dissolved in 1 N NaOH at 60° C. for 1 h. The volume of NaOH used to dissolve the cell pellets were adjusted based on the cell populations to yield the equal concentration. The absorbance was then measured at 405 nm.

tyrosinase in B16 cells = experiment: Western blot of tyrosinase in B16 cells; format: cell-based, Murine; settings: 6, 12, 24 h
Experimental: as §1

Row | SMILES | ratio of phospho-cdc2 to cdc2, increase vs vehicle (cdc2 in PDV cells) [fold] | swelling of the spleen, effect of PLX4032 ([1]; PLX4032 in DMBA/TPA mice) | tumor multiplicity, effect of PLX4032 on DMBA/TPA mice ([1]; intraperitoneal PLX4032) | proliferation and hyperplasia of the epidermis, effect of PLX4032 [2] | patients developing squamous cell carcinoma (SCC) and keratoacanthoma (KA) (patients) | depigmentation effect (melanin) (B16 melanoma cells) | tyrosinase expression (tyrosinase in B16 cells)
1 | CCCS(=O)(=O)Nc1ccc(F)c(C(=O)c2c[nH]c3ncc(-c4ccc(Cl)cc4)cc23)c1F [PLX4032, vemurafenib] | 2.1 | exacerbated the swelling of the spleen | greatly increased the tumor multiplicity | exacerbated the proliferation and hyperplasia of the epidermis | 20-30% |  | 
2 | O=c1cc(CO)occ1O [KA, Kojic acid] |  |  |  |  |  | depigmentation effect with statistical significance | time-dependently inhibited tyrosinase expression
